Data taken from patent US20120107932A1, “PRRS-VIRUS RECEPTOR AND ITS INHIBITOR” (priority 2009, published 2012).

Legend:
MA-104 and PAM cells [1] = assay: Effects of blebbistatin on cells (cytopathic effects, CPE); assay type: cell-based; settings: Table 4, Marc-145 and PAM cells
Experimental: Marc-145 and PAM cells (10^5 cells/ml) are cultured on DMEM medium (containing 100 U/ml penicillin, 50 μg/ml streptomycin sulphate, 50 μg/ml gentamycin and 10% calf serum) in an incubator under 37[…] and 5% CO2 to form monolayer. Dissolve (±)-blebbistatin, (S)-(−)-blebbistatin and (R)-(+)-blebbistatin (purchased from Tocris Cookson, Inc. [US]) in DMSO, then perform multiple-proportion dilution with PBS, add a monolayer culture plate and continuously culture it to observe cytopathic effects (CPE). Under a conventional microscope, CPE is observed as rough cell surface, strong refractivity, and finally cell shedding. […] Therefore, (+)-blebbistatin can be used as a PRRSV-receptor blocker.

MA-104 and PAM cells [2] = assay: as above; assay type: cell-based
PRRSV = assay: PRRSV-receptor blocking test (CPE caused by PRRSV in Marc-145 and PAM cells); assay type: cell-based; parameters: key to Inhibition levels of CPE: “−” means no CPE; “+” means CPE in 25% cells; “++” means CPE in 50% cells; “+++” means CPE in above 75% cells; settings: for Inhibition levels of CPE: PRRSV 10^3TCID50/ml, Marc-145 and PAM cells
Experimental: Marc-145 and PAM cells (10^5 cells/ml) are cultured on DMEM medium (containing 100 U/ml penicillin, 50 μg/ml streptomycin sulphate, 50 μg/ml gentamycin and 10% calf serum) in an incubator under 37 □ and 5% CO2 to form monolayer. Dissolve the NMHC II-A protein, artificially synthesized polypeptides, serum antibodies and (+)-blebbistatin obtained by using the methods of Implementation Examples 1, 2 and 4 in the DMEM medium; after de-germing by filtration, mix with PRRSV strains under different fixation concentrations (10^3TCID50/ml) and incubate an hour, and then add the cells above; perform eight repetitions for each dilution; after adsorption at 37 °C for an hour, remove the mixture, add DMEM medium and culture continuously; and observe CPE daily. The CPE manifestations caused by PRRSV infection include rough cell surface, strong refractivity, and finally cell shedding. The results in Table 5 illustrate the CPE inhibition levels of the NMHC II-A protein, artificially synthesized polypeptides, serum antibodies and (+)-blebbistatin under the each-well concentration of μg, μg, μL and μM in turn. The judgment results of cell CPE are expressed as follows: “−” means no CPE, “+” means CPE in 25% cells, “++” means CPE in 50% cells, and “+++” means CPE in above 75% cells.

NMM-II = settings: Straight et al. Science 2003; cited from earlier work
MA-104 and PAM cells [3] = assay: Indirect immunofluorescence assay (IFA), serum antibodies binding to cells; assay type: cell-based; settings: serum of mice after third immunization with the named antigen
Experimental: Indirect immunofluorescence assay (IFA): After dilution, combine the mouse anti-NMHC II-A protein and anti-polypeptide antibodies after immunization three times with MA-104 and PAM monolayer cells for 0.5-2 hours, then bind the goat anti-mouse IgG testing antibody labeled with fluorescence to the cells.

NMM-II ATPase = settings: vertebrate cells; Straight et al. Science 2003; cited from earlier work
[4] = dilution 1/40, MA-104 and PAM cells
[5] = dilution 1/80, MA-104 and PAM cells
[6] = dilution 1/160, MA-104 and PAM cells
[7] = dilution 1/320, MA-104 and PAM cells

Molecule | effect on cell proliferation and CPE (MA-104 and PAM cells [1]) | blebbistatin causing CPE or not (Yes or No) (MA-104 and PAM cells [2]; 1 μM) | blebbistatin causing CPE or not (Yes or No) (MA-104 and PAM cells [2]; 2 μM) | blebbistatin causing CPE or not (Yes or No) (MA-104 and PAM cells [2]; 5 μM) | blebbistatin causing CPE or not (Yes or No) (MA-104 and PAM cells [2]; 10 μM) | blebbistatin causing CPE or not (Yes or No) (MA-104 and PAM cells [2]; 20 μM) | blebbistatin causing CPE or not (Yes or No) (MA-104 and PAM cells [2]; 50 μM) | blebbistatin causing CPE or not (Yes or No) (MA-104 and PAM cells [2]; 100 μM) | Cell-bound serum (with or without fluorescence) (MA-104 and PAM cells [3]; [4]) | Cell-bound serum (with or without fluorescence) (MA-104 and PAM cells [3]; [5]) | Cell-bound serum (with or without fluorescence) (MA-104 and PAM cells [3]; [6]) | Cell-bound serum (with or without fluorescence) (MA-104 and PAM cells [3]; [7]) | Inhibition levels of CPE (PRRSV; 1 μg per well) | Inhibition levels of CPE (PRRSV; 2 μg per well) | Inhibition levels of CPE (PRRSV; 5 μg per well) | Inhibition levels of CPE (PRRSV; 10 μg per well) | Inhibition levels of CPE (PRRSV; 20 μg per well) | Inhibition levels of CPE (PRRSV; 50 μg per well) | Inhibition levels of CPE (PRRSV; 100 μg per well) | inhibition of the cell CPE caused by PRRSV (PRRSV; at 2 μg-100 μg/well) | also measured
Cc1ccc2c(c1)C(=O)[C@]1(O)CCN(c3ccccc3)C1=N2 [(S)-(−)-blebbistatin] | can inhibit cell proliferation and cause CPE | Yes | Yes | Yes | Yes | Yes | Yes | Yes |  |  |  |  |  |  |  |  |  |  |  |  | 
Cc1ccc2c(c1)C(=O)[C@@]1(O)CCN(c3ccccc3)C1=N2 [(+)-blebbistatin, (R)-(+)-blebbistatin, reference compound] | does not inhibit cell proliferation and does not cause CPE | No | No | No | No | No | No | No |  |  |  |  |  |  |  |  |  |  |  |  | Inhibition levels of CPE (PRRSV; 1 μM per well): + (“+” means CPE in 25% cells); Inhibition levels of CPE (PRRSV; 2 μM per well): −; Inhibition levels of CPE (PRRSV; 5 μM per well): −; Inhibition levels of CPE (PRRSV; 10 μM per well): −; Inhibition levels of CPE (PRRSV; 20 μM per well): −; Inhibition levels of CPE (PRRSV; 50 μM per well): −; Inhibition levels of CPE (PRRSV; 100 μM per well): −; inhibition of the cell CPE caused by PRRSV (PRRSV; at 2 μM-100 μM/well): fully inhibit; blocking of PRRSV strains from infecting cells (PRRSV; classic American strains (VR-2332), Chinese isolates (Ch-1a), highly pathogenic strains (JXA-1)): block the classic American strains, Chinese isolates and highly pathogenic strains of PRRSV from infecting cells; inhibition of NMM-II-dependent cellular division and proliferation (NMM-II): does not inhibit
Polypeptide (Seq ID No: 3): NMHC II-A artificial polypeptide, amino-acid sequence Seq ID No: 3 (GAGDGSDEEVDGKA) |  |  |  |  |  |  |  |  | Yes | Yes | Yes | Yes | ++ (“++” means CPE in 50% cells) | − | − | − | − | − | − | fully inhibit | 
Cc1ccc2c(c1)C(=O)C1(O)CCN(c3ccccc3)C1=N2 (racemic) [(±)-blebbistatin] | can inhibit cell proliferation and cause CPE | Yes | Yes | Yes | Yes | Yes | Yes | Yes |  |  |  |  |  |  |  |  |  |  |  |  | inhibition of NMM-II ATPase activity (NMM-II ATPase): selective inhibitor
Polypeptide (Seq ID No: 4): NMHC II-A artificial polypeptide, amino-acid sequence Seq ID No: 4 (KADGAEAKPAE) |  |  |  |  |  |  |  |  | Yes | Yes | Yes | Yes | ++ (“++” means CPE in 50% cells) | − | − | − | − | − | − | fully inhibit | 
Polypeptide (Seq ID No: 2): NMHC II-A artificial polypeptide, amino-acid sequence Seq ID No: 2 (GAGDGSDEE) |  |  |  |  |  |  |  |  | Yes | Yes | Yes | Yes | ++ (“++” means CPE in 50% cells) | − | − | − | − | − | − | fully inhibit | 
